Source: patent publication US20090197842A1, “Therapeutic Agent for Neuropathic Pain” (JAPAN SCIENCE AND TECHNOLOGY CORPORATION, priority 2005, published 2009)

Key:
[1] = test system: pain hypersensitivity model rats; experiment: Mechanical stimulation test (Dynamic Plantar Aesthesiometer), pain threshold of left plantar; format: in vivo; settings: for maximum pain threshold after the administration: max pressure 15.0 g, measured 30, 60, 90 min after administration; for effect of administration on pain threshold (in words): intraperitoneal, versus 0.5 w/v % CMC-Na control, Dunnett's test
Procedure: (§1) As experimental animals, pain hypersensitivity model rats obtained by conducting complete ligation on L5/L6 spinal nerves of 6-week-old male rats were used.
(§2) Mechanical stimulation tests were carried out using Dynamic Plantar Aesthesiometer (37400, Ugo Basile), and thermal stimulation tests were carried out using a plantar thermal stimulation tester (Plantar Test 7370, Ugo Basile). The pain threshold of the feet of each model animal was measured, and the animals were divided into groups using Preclinical Package Version 5.0 (SAS Institute Japan), such that the pain thresholds are uniform among the groups as measured prior to administration on each day of the experiment.
(§3) The test substance was prepared as follows. The base material was ground with an agate mortar and a pestle, and 0.5 w/v % carboxyrnethylcellulose sodium (CMC-Na) as a medium was gradually added thereto to form a uniform suspension. The concentration of the liquid to be administered was adjusted with a graduated cylinder or a volumetric flask, only before use.
(§4) The purpose of administering the test substance is to ascertain the direct effect on spinal cord. Since the test substance had been confirmed to pass through the brain barrier, a simple intraperitoneal administration was used. The test substance in a volume of 5 ml/kg was intraperitoneally administered using a syringe barrel and a needle.
(§5) Groups each including five pain hypersensitivity model male rats (355.8 to 457.9 g) were used. Before administration of ICI182.780, and at 30 minutes, 60 minutes and 90 minutes after administration of ICI182.780, the pain threshold of the left plantar of each rat was measured using a stimulating apparatus which had been set such that the maximum pressure would be 15.0 g and the maximum pressure would be reached in 20 seconds.
as §5, with “(290.3” for “(355.8”, “354.8” for “457.9”, “17β-estradiol,” for “ICI182.780,”
Groups each including five pain hypersensitivity model male rats (294.8 to 415.4 g) were used. Before administration of 17β-estradiol+ICI128.780, and at 30 minutes, 60 minutes and 90 minutes after administration of 17β-estradiol+ICI182.780, the pain threshold of the left plantar of each rat was measured using a stimulating apparatus which had been set such that the maximum pressure would be 15.0 g and the maximum pressure would be reached in 20 seconds.
as §5, with “(333.7” for “(355.8”, “408.3” for “457.9”, “fluocinolone acetonide,” for “ICI182.780,”
as §5, with “(261.4” for “(355.8”, “320.9” for “457.9”, “triamcinolone acetonide,” for “ICI182.780,”

[2] = test system: pain hypersensitivity model rats; experiment: Thermal stimulation test (plantar thermal stimulation tester), pain threshold of left plantar; format: in vivo; settings: thermal stimulation intensity 35; for maximum pain threshold after the administration: measured 30, 60, 90 min after administration
Procedure: as §1, §2, §3, §4
(§6) Groups each including five pain hypersensitivity model male rats (282.0 to 452.4 g) were used. Before administration of 17β-estradiol+ICI128.780, and at 30 minutes, 60 minutes and 90 minutes after administration of 17β-estradiol+ICI182.780, the pain threshold of the left plantar of each rat was measured using a plantar thermal stimulating apparatus set to a thermal stimulation intensity of 45.
as §6, with “(320.0” for “(282.0”, “449.6” for “452.4”, “fluocinolone acetonide,” for “17β-estradiol+ICI128.780,”, “fluocinolone acetonide,” for “17β-estradiol+ICI182.780,”, “35.” for “45.”

[3] = test system: neuropathic pain model mice; settings: J. Neurosci. 2004, 2005; cited from earlier work

Compound: C[C@]12CC[C@@H]3c4ccc(O)cc4CC[C@H]3[C@@H]1CC[C@@H]2O [17β-estradiol]
- maximum pain threshold after the administration ([1]; 0.3 mg/kg intraperitoneal): 8.1 g
- maximum pain threshold after the administration ([1]; 3 mg/kg intraperitoneal): 9.4 g
- maximum pain threshold after the administration ([1]; 30 mg/kg intraperitoneal): 10.4 g
- effect of administration on pain threshold (in words) [1]: significantly increased the pain threshold

Compound: C[C@]12CC[C@@H]3c4ccc(O)cc4C[C@@H](CCCCCCCCC[S+]([O-])CCCC(F)(F)C(F)(F)F)[C@H]3[C@@H]1CC[C@@H]2O (stereo partly drawn) [ICI182.780, 7α-17β-[9-[(4,4,5,5,5-pentafluoropentyl)sulphinyl]nonyl]estra-1,3,5(10)-trien-3,17-diol]
- maximum pain threshold after the administration ([1]; 0.3 mg/kg intraperitoneal): 6.7 g
- maximum pain threshold after the administration ([1]; 3 mg/kg intraperitoneal): 8.7 g
- maximum pain threshold after the administration ([1]; 30 mg/kg intraperitoneal): 10.6 g
- effect of administration on pain threshold (in words) [1]: significantly increased the pain threshold

Compound: CC1(C)O[C@@H]2C[C@H]3[C@@H]4C[C@H](F)C5=CC(=O)C=C[C@]5(C)[C@@]4(F)[C@@H](O)C[C@]3(C)[C@]2(C(=O)CO)O1 [fluocinolone acetonide]
- maximum pain threshold after the administration ([1]; 0.3 mg/kg intraperitoneal): 7.5 g
- maximum pain threshold after the administration ([1]; 3 mg/kg intraperitoneal): 11.3 g
- maximum pain threshold after the administration ([1]; 10 mg/kg intraperitoneal): 11.6 g
- effect of administration on pain threshold (in words) [1]: significantly increased the pain threshold
- maximum pain threshold after the administration ([2]; 0.3 mg/kg intraperitoneal): 8.0 s
- maximum pain threshold after the administration ([2]; 3 mg/kg intraperitoneal): 9.9 s
- maximum pain threshold after the administration ([2]; 10 mg/kg intraperitoneal): 9.9 s
- effect of administration on pain threshold (in words) ([2]; intraperitoneal, versus 0.5 w/v % CMC-Na control): significantly increased the pain threshold

Compound: CC#C[C@]1(O)CC[C@H]2[C@@H]3CCC4=CC(=O)CCC4=C3[C@@H](c3ccc(N(C)C)cc3)C[C@@]21C [mifepristone]
- analgesic action against neuropathic pain [3]: exhibited an analgesic action against neuropathic pain

Compound: CC1(C)O[C@@H]2C[C@H]3[C@@H]4CCC5=CC(=O)C=C[C@]5(C)[C@@]4(F)[C@@H](O)C[C@]3(C)[C@]2(C(=O)CO)O1 [triamcinolone acetonide]
- maximum pain threshold after the administration ([1]; 0.3 mg/kg intraperitoneal): 6.6 g
- maximum pain threshold after the administration ([1]; 3 mg/kg intraperitoneal): 8.1 g
- maximum pain threshold after the administration ([1]; 30 mg/kg intraperitoneal): 8.8 g
